From US20260364184A1, “COMPOUND BASED ON OXOISOINDOLINYL-SUBSTITUTED TETRAHYDROPYRIMIDINE-DIONE AND USE THEREOF” (GLUETACS THERAPEUTICS (SHANGHAI) CO., LTD., priority 2023, published 2026)
pIC50: −log10 of the molar value.

What was measured:
WEE1 = biological target: T1, WEE1 (Homo sapiens, UniProt P30291+Q96SW2); experiment: Western blot degradation of WEE1; format: cell-based; conditions: hPBMC Cell; 24 hours
T1 construct: expression of target proteins in cells; endogenous in cells
Experimental: (§1) Conventional Western blot assay was performed to evaluate the effects of the compounds of the present disclosure on the expression of target proteins in cells.
(§2) (1) Cell Seeding and Protein Harvesting: The selected cells were processed according to the cell seeding procedure and protein harvesting procedure in Table II-2.
(§3) (2) To the collected supernatant, 5×SDS sample loading buffer was added, followed by denaturation at 95 °C for 5 minutes. The denatured samples were then separated by SDS-PAGE electrophoresis on a polyacrylamide gel. Proteins were transferred to a nitrocellulose membrane (0.45 μm NC membrane), blocked with blocking buffer at room temperature for 1 hour, and subjected to antibody incubation and development procedures according to the antibody manufacturer's instructions (Cell Signaling Technology).
(§4) Half-Maximal Degradation Concentration value (the drug concentration required for degrading proteins by 50%, abbreviated as DC50) reads method: comparing the grayscale values of Western blot bands from drug-treated samples with those from blank DMSO-treated controls, and identifying the drug concentration range at which the grayscale value is half that of the DMSO-treated control bands.
(§5) DC50 values can be calculated using ImageJ software to measure grayscale values of Western blot bands from drug-treated samples. The concentration-response curve is fitted to estimate the drug concentration corresponding to half the grayscale value.
(§6) Target protein remaining (%) refers to the percentage of target protein remaining in cells after treatment with protein degrader compounds.
(§7) Calculation method for target protein remaining (%): Use ImageJ software to measure grayscale values of Western blot bands from drug (protein degrader)-treated samples. The grayscale value of drug-treated bands is divided by that of internal control protein bands, and the resulting quotient is normalized to obtain the relative percentage of remaining target protein after protein degrader treatment.
(§8) Target protein degradation rate (%)=1−target protein remaining (%).

IKZF1 = biological target: T2, IKZF1 (Homo sapiens, UniProt Q13422+Q96SW2); experiment: Western blot degradation of IKZF1; format: cell-based; conditions: hPBMC Cell; 24 hours
T2 construct: expression of target proteins in cells; endogenous in cells
T2 sequence (Q13422 whole entry): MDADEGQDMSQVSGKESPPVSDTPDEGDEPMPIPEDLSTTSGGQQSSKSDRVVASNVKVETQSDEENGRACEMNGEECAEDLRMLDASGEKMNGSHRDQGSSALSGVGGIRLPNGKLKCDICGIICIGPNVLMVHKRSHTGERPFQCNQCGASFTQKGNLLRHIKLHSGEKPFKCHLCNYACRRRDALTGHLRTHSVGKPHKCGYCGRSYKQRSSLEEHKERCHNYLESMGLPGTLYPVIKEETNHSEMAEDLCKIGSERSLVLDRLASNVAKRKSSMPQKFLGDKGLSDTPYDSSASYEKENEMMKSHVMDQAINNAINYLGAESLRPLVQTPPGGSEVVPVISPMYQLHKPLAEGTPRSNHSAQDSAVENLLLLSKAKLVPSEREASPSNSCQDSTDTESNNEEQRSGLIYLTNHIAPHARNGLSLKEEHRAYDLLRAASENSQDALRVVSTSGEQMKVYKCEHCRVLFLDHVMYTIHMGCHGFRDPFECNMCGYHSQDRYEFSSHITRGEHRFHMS
T2 sequence (Q96SW2 whole entry): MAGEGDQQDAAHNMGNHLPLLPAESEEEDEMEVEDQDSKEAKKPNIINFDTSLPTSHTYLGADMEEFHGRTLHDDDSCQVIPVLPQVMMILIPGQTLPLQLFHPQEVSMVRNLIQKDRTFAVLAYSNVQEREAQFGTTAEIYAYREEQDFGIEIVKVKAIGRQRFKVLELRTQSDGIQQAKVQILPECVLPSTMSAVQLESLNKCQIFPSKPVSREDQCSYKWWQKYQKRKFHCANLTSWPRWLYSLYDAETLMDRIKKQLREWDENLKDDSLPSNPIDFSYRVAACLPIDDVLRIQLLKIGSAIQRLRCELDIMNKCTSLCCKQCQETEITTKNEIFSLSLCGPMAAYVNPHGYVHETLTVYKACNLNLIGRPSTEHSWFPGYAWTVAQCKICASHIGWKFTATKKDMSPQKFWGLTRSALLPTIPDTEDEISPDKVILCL
T2 sequence (Q16531 whole entry partner): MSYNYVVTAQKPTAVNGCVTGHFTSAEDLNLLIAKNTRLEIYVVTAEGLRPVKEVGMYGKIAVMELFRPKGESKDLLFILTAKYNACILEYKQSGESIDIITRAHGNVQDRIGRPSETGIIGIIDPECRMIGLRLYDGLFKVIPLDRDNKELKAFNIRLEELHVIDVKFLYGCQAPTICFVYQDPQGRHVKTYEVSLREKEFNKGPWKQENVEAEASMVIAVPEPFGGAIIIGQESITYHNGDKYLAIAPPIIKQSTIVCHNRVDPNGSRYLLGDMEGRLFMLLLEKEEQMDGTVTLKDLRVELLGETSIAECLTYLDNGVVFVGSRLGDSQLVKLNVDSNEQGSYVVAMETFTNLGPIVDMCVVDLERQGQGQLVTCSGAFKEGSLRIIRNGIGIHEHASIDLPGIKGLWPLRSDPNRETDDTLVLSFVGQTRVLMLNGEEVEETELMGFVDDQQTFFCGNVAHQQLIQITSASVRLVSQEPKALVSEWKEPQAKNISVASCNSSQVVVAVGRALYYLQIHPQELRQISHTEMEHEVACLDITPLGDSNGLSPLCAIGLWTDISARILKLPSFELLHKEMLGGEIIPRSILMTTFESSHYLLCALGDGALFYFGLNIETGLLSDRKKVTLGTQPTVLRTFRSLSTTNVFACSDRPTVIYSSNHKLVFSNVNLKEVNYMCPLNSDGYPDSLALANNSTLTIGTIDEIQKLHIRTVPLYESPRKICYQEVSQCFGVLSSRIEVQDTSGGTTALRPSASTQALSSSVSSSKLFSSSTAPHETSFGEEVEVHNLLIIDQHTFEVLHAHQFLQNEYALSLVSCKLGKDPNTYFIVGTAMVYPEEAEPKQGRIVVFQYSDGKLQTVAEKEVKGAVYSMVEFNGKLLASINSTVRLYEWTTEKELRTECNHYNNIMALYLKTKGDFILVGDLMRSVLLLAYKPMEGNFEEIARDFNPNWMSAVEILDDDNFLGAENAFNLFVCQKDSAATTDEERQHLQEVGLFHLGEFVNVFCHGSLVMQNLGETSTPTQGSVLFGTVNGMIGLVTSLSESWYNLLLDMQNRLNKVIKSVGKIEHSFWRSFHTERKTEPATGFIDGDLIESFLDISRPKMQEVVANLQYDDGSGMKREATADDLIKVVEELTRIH
Experimental: as §1, §2, §3, §4, §5, §6, §7, §8

IKZF2 = biological target: T3, IKZF2 (Homo sapiens, UniProt Q96SW2+Q9UKS7); experiment: Western blot degradation of IKZF2; format: cell-based; conditions: hPBMC Cell; 24 hours
T3 construct: expression of target proteins in cells; endogenous in cells
Experimental: as §1, §2, §3, §4, §5, §6, §7, §8

IKZF3 = biological target: T4, IKZF3 (Homo sapiens, UniProt Q96SW2+Q9UKT9); experiment: Western blot degradation of IKZF3; format: cell-based; conditions: hPBMC Cell; 24 hours
T4 construct: expression of target proteins in cells; endogenous in cells
T4 sequence (Q9UKT9 whole entry): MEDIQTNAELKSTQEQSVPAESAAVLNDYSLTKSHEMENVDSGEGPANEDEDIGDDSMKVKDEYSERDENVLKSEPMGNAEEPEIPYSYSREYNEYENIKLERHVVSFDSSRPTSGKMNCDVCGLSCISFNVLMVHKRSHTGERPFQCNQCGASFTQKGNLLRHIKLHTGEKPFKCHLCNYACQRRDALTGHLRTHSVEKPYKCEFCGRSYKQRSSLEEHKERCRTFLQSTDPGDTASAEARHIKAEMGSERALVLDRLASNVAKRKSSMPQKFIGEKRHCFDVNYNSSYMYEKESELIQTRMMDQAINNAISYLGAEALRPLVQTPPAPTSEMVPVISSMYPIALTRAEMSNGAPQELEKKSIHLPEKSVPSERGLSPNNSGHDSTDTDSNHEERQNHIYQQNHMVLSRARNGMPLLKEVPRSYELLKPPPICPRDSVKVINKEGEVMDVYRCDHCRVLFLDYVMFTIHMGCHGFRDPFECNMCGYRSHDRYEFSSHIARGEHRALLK
T4 sequence (Q96SW2 whole entry): as the sequence (Q96SW2 whole entry) above
T4 sequence (Q16531 whole entry partner): as the sequence (Q16531 whole entry partner) above
Experimental: as §1, §2, §3, §4, §5, §6, §7, §8

CK1α = biological target: T5, CK1α (Homo sapiens, UniProt P48729+Q96SW2); experiment: Western blot degradation of CK1α; format: cell-based; conditions: hPBMC Cell; 24 hours
T5 construct: expression of target proteins in cells; endogenous in cells
T5 sequence (P48729 whole entry): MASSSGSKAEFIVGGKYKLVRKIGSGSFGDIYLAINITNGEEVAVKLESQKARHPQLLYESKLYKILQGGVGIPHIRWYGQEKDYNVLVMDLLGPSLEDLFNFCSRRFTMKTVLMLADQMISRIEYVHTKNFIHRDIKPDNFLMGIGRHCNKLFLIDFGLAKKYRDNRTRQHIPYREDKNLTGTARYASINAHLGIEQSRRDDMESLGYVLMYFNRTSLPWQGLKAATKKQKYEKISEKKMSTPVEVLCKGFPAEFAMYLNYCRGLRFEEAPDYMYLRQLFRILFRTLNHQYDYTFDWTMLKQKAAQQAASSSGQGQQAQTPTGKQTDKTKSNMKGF
T5 sequence (Q96SW2 whole entry): as the sequence (Q96SW2 whole entry) above
T5 sequence (Q16531 whole entry partner): as the sequence (Q16531 whole entry partner) above
Experimental: as §1, §2, §3, §4, §5, §6, §7, §8

GSPT1 = biological target: T6, GSPT1 (Homo sapiens, UniProt P15170+Q96SW2); experiment: Western blot degradation of GSPT1; format: cell-based; conditions: hPBMC Cell; 24 hours
T6 construct: expression of target proteins in cells; endogenous in cells
T6 sequence (P15170 whole entry): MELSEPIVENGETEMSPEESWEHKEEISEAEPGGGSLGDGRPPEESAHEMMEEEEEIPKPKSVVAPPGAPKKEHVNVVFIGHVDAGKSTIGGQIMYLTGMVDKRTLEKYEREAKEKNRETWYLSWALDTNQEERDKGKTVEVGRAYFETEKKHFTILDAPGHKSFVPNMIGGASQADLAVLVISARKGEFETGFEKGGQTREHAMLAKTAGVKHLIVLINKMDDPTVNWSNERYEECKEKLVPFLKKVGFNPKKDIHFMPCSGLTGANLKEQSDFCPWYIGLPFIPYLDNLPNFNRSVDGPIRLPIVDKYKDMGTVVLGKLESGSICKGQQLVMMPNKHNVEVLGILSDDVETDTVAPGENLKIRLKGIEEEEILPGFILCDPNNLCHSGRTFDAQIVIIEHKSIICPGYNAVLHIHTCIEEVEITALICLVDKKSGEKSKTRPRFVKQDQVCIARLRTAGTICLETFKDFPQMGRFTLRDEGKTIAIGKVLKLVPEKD
T6 sequence (Q96SW2 whole entry): as the sequence (Q96SW2 whole entry) above
T6 sequence (Q16531 whole entry partner): as the sequence (Q16531 whole entry partner) above
Experimental: as §1, §2, §3, §4, §5, §6, §7, §8

[1] = biological target: T7, human Cereblon WT GST-tagged protein (CRBN) (Homo sapiens, UniProt Q96SW2); experiment: CRBN binding by HTRF (Cereblon binding kit)
T7 construct: purchased CISBIO 64BDCRBNPEH
T7 sequence (Q96SW2 whole entry): as the sequence (Q96SW2 whole entry) above
How it was run: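 GST-tagged human Cereblon WT was incubated 3 h at room temperature with compound, thalidomide-Re tracer and Eu anti-GST antibody. Final compound concentrations were 10 to 0.00064 µM (7 points) or 2 and 0.5 µM. Inhibition rate was calculated from HTRF 665/620 nm ratios versus solvent and blank controls.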

[2] = tested on: Human myeloid monocytic leukemia cell line (MV-4-11); experiment: Inhibition of MV-4-11 cell proliferation (CellTiter luminescent viability); format: cell-based; conditions: Homo sapiens, MV4-11, Table IG2, FAK inhibitor-based, 96 hours
How it was run: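 IC50 is fitted from luminescent viability (CellTiter-Meiluncell) curves. Nine-point, 5-fold dilution series (top stock 2000 μM) are added at 0.5 μL per 100 μL medium to cells plated the day before, with growth at 37 °C and 5% CO2.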

[3] = tested on: Human breast cancer cell line (MDA-MB-231); experiment: Inhibition of MDA-MB-231 cell proliferation (CellTiter luminescent viability); format: cell-based; conditions: Table IG3, FAK inhibitor-based, 96 hours
Experimental: The tumor cells used herein were cultured in a cell culture medium listed in table 3 at 37 °C in an incubator with 5% CO2. Prior to experimentation, all cell lines used were correctly identified by STR profiling, and tested negative for mycoplasma contamination using a mycoplasma detection kit through routine screenings.
The IC50 values of the compounds of the present disclosure (including the compounds in Table 1, Table 2, and Examples 1-468) were determined using the CellTiter-Meiluncell Luminescent Cell Viability Assay Kit from Dalian Meilun Biotech Co., Ltd. The detailed procedure is as follows: Tumor cells were seeded in 96-well cell culture plates at the densities specified in Table 4. On the following day, the test compounds of the present disclosure were subjected to serial dilution. The dilution can be performed according to one of the following two methods: • (1) The first dilution method: The test compounds of the present disclosure (including the compounds in Table 1, Table 2, and Examples 1-468) were subjected to 5-fold serial dilutions starting from a highest concentration of 2000 μM, resulting in a total of 9 concentrations from high to low (2000, 400, 80, 16, 3.2, 0.64, 0.128, 0.0256, 0.00512 μM). Subsequently, 0.5 μL of the test compound dilution was transferred into the 96-well plate containing the cells, with each well containing 100 μL of cell culture medium. […] Into the 96-well plate, the diluted test compounds and corresponding detection reagents were added, resulting in final test compound concentrations of 500 nM and 10 nM, respectively. The experimental procedure is described below using the diluted 2 μM test compound as an example.
0.5 μL of the aforementioned diluted compound of the present disclosure (including the compounds in Table 1, Table 2, and Examples 1-468) was added to the seeded cells in 100 μL of medium, yielding a final test compound concentration of 10 nM. After the cells were treated with the compounds of the present disclosure for a specified period, the cell viability assay reagent was added to the culture medium according to the kit's instructions to determine cell viability. […] All controls were treated using the same procedure as the compounds of the present disclosure. The growth inhibition curves for the compounds of the present disclosure were plotted using Prism GraphPad software, and the IC50 values were calculated therefrom.

T1 sequence (P30291 whole entry): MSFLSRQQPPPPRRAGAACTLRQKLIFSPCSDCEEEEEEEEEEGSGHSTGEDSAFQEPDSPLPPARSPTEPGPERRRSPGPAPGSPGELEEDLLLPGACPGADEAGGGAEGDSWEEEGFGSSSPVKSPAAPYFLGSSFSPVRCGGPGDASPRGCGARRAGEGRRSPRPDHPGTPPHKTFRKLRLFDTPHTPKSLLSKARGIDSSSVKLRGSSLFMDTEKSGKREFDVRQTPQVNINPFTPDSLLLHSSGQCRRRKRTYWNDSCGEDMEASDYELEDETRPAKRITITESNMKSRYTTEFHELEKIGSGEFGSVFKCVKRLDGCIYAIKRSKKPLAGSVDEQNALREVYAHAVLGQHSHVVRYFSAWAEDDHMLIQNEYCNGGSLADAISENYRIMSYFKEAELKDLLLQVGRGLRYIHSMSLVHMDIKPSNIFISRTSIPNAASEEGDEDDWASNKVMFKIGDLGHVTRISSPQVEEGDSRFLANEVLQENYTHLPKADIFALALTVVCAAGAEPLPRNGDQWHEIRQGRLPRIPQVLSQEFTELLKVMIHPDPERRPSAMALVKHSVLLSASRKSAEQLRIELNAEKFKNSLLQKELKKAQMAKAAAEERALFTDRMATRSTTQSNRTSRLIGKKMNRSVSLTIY
T1 sequence (Q96SW2 whole entry): as the sequence (Q96SW2 whole entry) above
T1 sequence (Q16531 whole entry partner): as the sequence (Q16531 whole entry partner) above

| Compound | Degradation of substrate protein IKZF2 (substrate protein remaining %) (IKZF2) | pIC50 [1] | Degradation of substrate protein WEE1 (substrate protein remaining %) (WEE1) | Degradation of substrate protein IKZF1 (substrate protein remaining %) (IKZF1) | Degradation of substrate protein IKZF3 (substrate protein remaining %) (IKZF3) | Degradation of substrate protein CK1α (substrate protein remaining %) (CK1α) | Degradation of substrate protein GSPT1 (substrate protein remaining %) (GSPT1) | inhibition at 0.01 µM ([2]; MV-4-11, 10 nM, read-out: Inhibition Rate at 10 nM (%)) | inhibition at 0.5 µM ([2]; MV-4-11, 500 nM, read-out: Inhibition Rate at 500 nM (%)) | inhibition at 0.01 µM ([3]; MDA-MB-231, 10 nM, read-out: Inhibition Rate at 10 nM (%)) | inhibition at 0.5 µM ([3]; MDA-MB-231, 500 nM, read-out: Inhibition Rate at 500 nM (%)) |
| --- | --- | --- | --- | --- | --- | --- | --- | --- | --- | --- | --- |
| O=C1CCN(N2Cc3cc(CBr)ccc3C2=O)C(=O)N1 [GT-05568, 1-(5-(bromomethyl)-1-oxoisoindolin-2-yl)dihydropyrimidine-2,4(1H, 3H)-dione] | B (80%<substrate protein remaining %≤100%) | 5.82 to 6.00 | A (0%≤substrate protein remaining %≤80%) | A (0%≤substrate protein remaining %≤80%) | A (0%≤substrate protein remaining %≤80%) | A (0%≤substrate protein remaining %≤80%) | A (0%≤substrate protein remaining %≤80%) | – | – | – | – |
| O=C1CCN(N2C(=O)c3ccc(N4CCNCC4)c(F)c3C2=O)C(=O)N1 [GT-05592, 2-(2,4-dioxotetrahydropyrimidin-1(2H)-yl)-4-fluoro-5-(piperazin-1-yl)isoindoline-1,3-dione] | B (80%<substrate protein remaining %≤100%) | – | B (80%<substrate protein remaining %≤100%) | B (80%<substrate protein remaining %≤100%) | A (0%≤substrate protein remaining %≤80%) | B (80%<substrate protein remaining %≤100%) | B (80%<substrate protein remaining %≤100%) | – | – | – | – |
| O=C1CCN(N2C(=O)c3cc(N4CCNCC4)cc(F)c3C2=O)C(=O)N1 [GT-05593, 2-(2,4-dioxotetrahydropyrimidin-1(2H)-yl)-4-fluoro-6-(piperazin-1-yl)isoindoline-1,3-dione] | A (0%≤substrate protein remaining %≤80%) | – | B (80%<substrate protein remaining %≤100%) | B (80%<substrate protein remaining %≤100%) | B (80%<substrate protein remaining %≤100%) | B (80%<substrate protein remaining %≤100%) | A (0%≤substrate protein remaining %≤80%) | – | – | – | – |
| O=C1CCN(N2C(=O)c3ccc(N4CCC(N5CCNCC5)CC4)cc3C2=O)C(=O)N1 [GT-05594, 2-(2,4-dioxotetrahydropyrimidin-1(2H)-yl)-5-(4-(piperazin-1-yl)piperidin-1-yl)isoindoline-1,3-dione] | A (0%≤substrate protein remaining %≤80%) | – | B (80%<substrate protein remaining %≤100%) | B (80%<substrate protein remaining %≤100%) | B (80%<substrate protein remaining %≤100%) | B (80%<substrate protein remaining %≤100%) | A (0%≤substrate protein remaining %≤80%) | – | – | – | – |
| O=CC1CCN(C2CCN(c3ccc4c(c3)C(=O)N(N3CCC(=O)NC3=O)C4=O)CC2)CC1 [GT-05595, 1′-(2-(2,4-dioxotetrahydropyrimidin-1(2H)-yl)-1,3-dioxoisoindolin-5-yl)-[1,4′-bipiperidine]-4-carbaldehyde] | A (0%≤substrate protein remaining %≤80%) | – | B (80%<substrate protein remaining %≤100%) | B (80%<substrate protein remaining %≤100%) | B (80%<substrate protein remaining %≤100%) | B (80%<substrate protein remaining %≤100%) | B (80%<substrate protein remaining %≤100%) | – | – | – | – |
| CN(Cc1ccc2c(c1)C(=O)N(N1CCC(=O)NC1=O)C2)C1CCN(c2ccc(Nc3ncc(C(F)(F)F)c(NCc4nccnc4N(C)S(C)(=O)=O)n3)cc2)CC1 [GT-08136, N-(3-(((2-((4-(4-(((2-(2,4-dioxotetrahydropyrimidin-1(2H)-yl)-3-oxoisoindolin-5-yl)methyl)(methyl)amino)piperidin-1-yl)phenyl)amino)-5-(trifluoromethyl)pyrimidin-4-yl)amino)methyl)pyrazin-2-yl)-N-methylmethanesulfonamide] | – | – | – | – | – | – | – | -5 to 0% | 80 to 100% | 20 to 30% | 50 to 60% |

More lines, main results first:

| Degradation of substrate protein IKZF2 (substrate protein remaining %) (IKZF2) | pIC50 [1] | Compound | Degradation of substrate protein WEE1 (substrate protein remaining %) (WEE1) | Degradation of substrate protein IKZF1 (substrate protein remaining %) (IKZF1) | Degradation of substrate protein IKZF3 (substrate protein remaining %) (IKZF3) | Degradation of substrate protein CK1α (substrate protein remaining %) (CK1α) | Degradation of substrate protein GSPT1 (substrate protein remaining %) (GSPT1) | inhibition at 0.01 µM ([2]; MV-4-11, 10 nM, read-out: Inhibition Rate at 10 nM (%)) | inhibition at 0.5 µM ([2]; MV-4-11, 500 nM, read-out: Inhibition Rate at 500 nM (%)) | inhibition at 0.01 µM ([3]; MDA-MB-231, 10 nM, read-out: Inhibition Rate at 10 nM (%)) | inhibition at 0.5 µM ([3]; MDA-MB-231, 500 nM, read-out: Inhibition Rate at 500 nM (%)) |
| --- | --- | --- | --- | --- | --- | --- | --- | --- | --- | --- | --- |
| A (0%≤substrate protein remaining %≤80%) | – | O=C1CCN(N2C(=O)c3ccc(CBr)cc3C2=O)C(=O)N1 [GT-06979, 5-(bromomethyl)-2-(2,4-dioxotetrahydropyrimidin-1(2H)-yl)isoindoline-1,3-dione] | A (0%≤substrate protein remaining %≤80%) | B (80%<substrate protein remaining %≤100%) | B (80%<substrate protein remaining %≤100%) | B (80%<substrate protein remaining %≤100%) | B (80%<substrate protein remaining %≤100%) | – | – | – | – |
| A (0%≤substrate protein remaining %≤80%) | – | NCc1ccc2c(c1)C(=O)N(N1CCC(=O)NC1=O)C2=O [GT-07968, 5-(aminomethyl)-2-(2,4-dioxotetrahydropyrimidin-1(2H)-yl)isoindoline-1,3-dione] | A (0%≤substrate protein remaining %≤80%) | A (0%≤substrate protein remaining %≤80%) | A (0%≤substrate protein remaining %≤80%) | A (0%≤substrate protein remaining %≤80%) | B (80%<substrate protein remaining %≤100%) | – | – | – | – |
